Test results taken from paper PMC7601674, “CoQ10 Deficient Endothelial Cell Culture Model for the Investigation of CoQ10 Blood–Brain Barrier Transport” (Journal of Clinical Medicine, 2020).

Legend:
[1] = design: method as in PMID 16647250; conditions: high-dose (1000–5000 mg/kg) CoQ10; cited from earlier work
ataxic symptoms = tested on: ataxic symptoms; design: method as in PMID 22490322; conditions: cerebellar ataxic phenotype, following CoQ10 supplementation; cited from earlier work
[2] = tested on: CoQ10 deficient human neuroblastoma cells; design: method as in PMID 24534273; conditions: treatment with 10 μmol/L CoQ10; cited from earlier work
[3] = design: method as in PMID 9671775; conditions: diet supplemented with 200 mg/kg CoQ10 for 2 months; cited from earlier work
[4] = tested on: primary porcine brain endothelial cells (PBEC) monolayer; experiment: CoQ10 transport assay across PBEC monolayer on Transwell filters; conditions: for Transport to the Basal side, percentage of Apical compartment: A to B, no serum pre-incubation
Method: Primary porcine brain endothelial cells (PBEC) were isolated and cultured as previously published. Briefly, cells were seeded at 10 × 10^4 cells/cm^2 on collagen and fibronectin-coated polycarbonate Transwell filters (Corning 0.4 µm pore size) in 12-well plates, and grown in low glucose DMEM (Sigma D5546) supplemented with bovine plasma-derived serum (10% v/v; BPDS, First Link UK), glutamine (2 mM), heparin (125 µg/mL), penicillin (100 U/mL) and streptomycin (100 µg/mL), at 37 °C in a 5% CO2 incubator. PBECs were grown in non-contact co-culture above primary rat astrocytes until confluent, then supplemented with hydrocortisone (550 nM), 8-4-chlorophenylthio-cAMP (250 µM) and RO-20-1724 (17.5 µM) in serum-free medium for a further 3 days. Before assays of CoQ10 transport, PBECs were separated from astrocytes by moving transwell filters to fresh culture plates.
(§1) Unless stated, CoQ10 was pre-treated by incubation in serum at a concentration of 20 µM for 45 min at 37 °C, and added to assay buffer on either the Apical (blood facing) or Basal (brain facing) side of the cells on Transwell filters. The final concentration of CoQ10 used in the assays was 10 µM in serum (50% v/v). Cells were then incubated for 60 min on an orbital shaker (100 rpm) at 37 °C. Samples of the Apical (A) and Basal (B) media were then taken for analysis to calculate A to B (blood-to-brain) or B to A (brain-to-blood) Papp in cm/s, as previously described by Patabendige et al.. CoQ10 concentrations were determined using the LC-MS/MS method described above (Section 2.2).
(§2) Inhibitors of transport were added to both Apical and Basal sides of the cells for 2 h prior to assay. Antioxidants were pre-incubated with CoQ10 in serum for 45 min prior to assay, and were present in the assay buffer. Compounds used were; SR-B1 inhibitor, blocker of lipid transport-1 (BLT-1; 10 µmol/L)

[5] = CoQ10 partition in serum lipoprotein fractions; format: in vitro ADME, bovine; conditions: for CoQ10 content in HDL fraction / CoQ10 content in LDL fraction: n = 3; for CoQ10 content in vLDL fraction: calculated by subtraction
Method: Bovine plasma-derived serum (BPDS) was either untreated or supplemented with 10 µM CoQ10 for 45 min at 37 °C. Serum lipoproteins were then fractionated according to the method of Ononogbu et al. and the CoQ10 content measured in each fraction by LC-MS/MS. This lipoprotein fraction method is comprised of two parallel precipitation-centrifugation extractions, yielding a separation of the major classes of lipoprotein as supernatants containing “LDL + HDL” and “HDL”. The concentration of CoQ10 in the “VLDL” fraction was calculated by subtraction.

[6] = design: method as in PMID 17482886, PMID 22272129; conditions: after oral-supplementation in vivo; cited from earlier work
[7] = tested on: bEnd.3 cells (mouse BBB cell line) monolayer; experiment: CoQ10 transport assay across bEnd.3 monolayer on Transwell filters (control or pABA treated)
Method: as §1, §2
As previously described, para-aminobenzoic acid (pABA) was used as a pharmacological reagent to induce CoQ10 deficiency. The mechanism of action is via competitive inhibition of polyprenyl-4-hydroxybenzoate transferase (Coq2p), a key enzyme in the later stages of the CoQ10 biosynthetic pathway. Following the method of Duberley et al., 1 mmol/L pABA was added to culture medium for 5 days prior to assay.

[8] = serum supplemented with 10 μmol/L CoQ10
[9] = serum supplemented with 10 μmol/L CoQ10, 45 min

COC1=C(OC)C(=O)C(C/C=C(\C)CC/C=C(\C)CC/C=C(\C)CC/C=C(\C)CC/C=C(\C)CC/C=C(\C)CC/C=C(\C)CC/C=C(\C)CC/C=C(\C)CCC=C(C)C)=C(C)C1=O [CoQ10, Coenzyme Q10]
Brain levels of CoQ10 and CoQ9 [1]: significantly increased in brain levels of CoQ10 and CoQ9
Patients with improvement/stabilisation in ataxic symptoms (ataxic symptoms): 49%
MRC function [2]: restores MRC function
Increase in cerebral cortex CoQ10 and CoQ9 [3]: 30%
Transport to the Basal side, percentage of Apical compartment ([4]; 30 min): undetectable
Transport to the Basal side, percentage of Apical compartment ([4]; after 2 h, n = 4): 0.51 ± 0.15%
Increase of transport across PBEC monolayer after pre-incubation in serum ([4]; CoQ10 pre-incubated 45 min in serum (BPDS) vs no serum): 4 fold
Effect of serum pre-incubation on Papp (A to B and B to A) ([4]; PBEC, 60 min): enhanced transport in both directions
Transport across monolayer after pABA treatment vs control ([4]; PBEC, pABA 1 mM 5 days): increased transport
Supplemented CoQ10 recovered in the vLDL/LDL fractions ([5]; serum supplemented with 10 µM CoQ10): More than 92%
% of CoQ10 in HDL fraction [5, 8]: 7.2%
% of CoQ10 in LDL fraction [5, 8]: 63.8%
% of CoQ10 in vLDL fraction [5, 8]: 29%
CoQ10 content in HDL fraction [5, 9]: 762 ± 8.1 nmol/L
CoQ10 content in LDL fraction [5, 9]: 6718 ± 103.5 nmol/L
CoQ10 content in vLDL fraction [5, 8]: 3060 ± 138.8 nmol/L
Serum endogenous CoQ10 content ([5]; untreated cell culture serum): 147.5 ± 0.5 nM
% of CoQ10 in HDL fraction ([5]; untreated serum): 21.7%
% of CoQ10 in LDL fraction ([5]; untreated serum): 77.7%
% of CoQ10 in vLDL fraction ([5]; untreated serum): 0.6%
CoQ10 content in HDL fraction ([5]; untreated serum): 32.7 ± 1.8 nmol/L
CoQ10 content in LDL fraction ([5]; untreated serum): 117.0 ± 1.2 nmol/L
CoQ10 content in vLDL fraction ([5]; untreated serum): 0.9 ± 0.01 nmol/L
Highest achievable CoQ10 plasma concentration [6]: 10.7 µmol/L
Effect of serum pre-incubation on Papp (A to B and B to A) ([7]; bEnd.3, 60 min): enhanced transport in both directions
NET CoQ10 Apical to Basal Papp (A to B Papp - B to A Papp) ([7]; bEnd.3, Control): -0.02 ×10⁻⁶ cm/s
NET CoQ10 Apical to Basal Papp (A to B Papp - B to A Papp) ([7]; bEnd.3, LDLR inhib (RAP 0.5 µM)): 0.1 ×10⁻⁶ cm/s
NET CoQ10 Apical to Basal Papp (A to B Papp - B to A Papp) ([7]; bEnd.3, P-gp inhib (verapamil 0.1 mM)): -0.04 ×10⁻⁶ cm/s
NET CoQ10 Apical to Basal Papp (A to B Papp - B to A Papp) ([7]; bEnd.3, RAGE inhib (FPS-ZM1 1 µM)): -0.08 ×10⁻⁶ cm/s
NET CoQ10 Apical to Basal Papp (A to B Papp - B to A Papp) ([7]; bEnd.3, SR-B1 inhib (BLT-1 10 µM)): -0.13 ×10⁻⁶ cm/s
Transport across monolayer after pABA treatment vs control ([7]; bEnd.3, pABA 1 mM 5 days): increased transport
